Experimental data from PubChem BioAssay (NCI).
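Where inhibition never reached the appropriate level, the endpoint shown equals the highest concentration tested. Otherwise, values were interpolated linearly from a five-concentration, 48-hour dose response in 96-well plates. TGI: concentration producing complete growth inhibition.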

Columns and labels:
Assay in all cases: growth of human tumour cells (NCI), 48 h
OVCAR-5 ovarian = test system: OVCAR-5 ovarian
HT29 colon = test system: HT29 colon
HOP-62 NSCLC = test system: HOP-62 NSCLC
SK-MEL-2 melanoma = test system: SK-MEL-2 melanoma
HS 578T breast = test system: HS 578T breast
NCI-H522 lung = test system: NCI-H522 lung
K-562 leukemia = test system: K-562 leukemia
DU-145 prostate = test system: DU-145 prostate
NCI-H226 lung = test system: NCI-H226 lung
IGROV1 ovarian = test system: IGROV1 ovarian
A549 NSCLC = test system: A549 NSCLC
COLO 205 colon = test system: COLO 205 colon
SF-295 CNS = test system: SF-295 CNS
MDA-MB-435 = test system: MDA-MB-435
UACC-62 melanoma = test system: UACC-62 melanoma
M14 melanoma = test system: M14 melanoma
SR leukemia = test system: SR leukemia
HCT-116 colon = test system: HCT-116 colon
MCF7 breast = test system: MCF7 breast
UACC-257 melanoma = test system: UACC-257 melanoma
TK-10 renal = test system: TK-10 renal
HL-60(TB) leukemia = test system: HL-60(TB) leukemia
CCRF-CEM leukemia = test system: CCRF-CEM leukemia
ACHN renal = test system: ACHN renal
MDA-N = test system: MDA-N
786-0 renal = test system: 786-0 renal
CAKI-1 renal = test system: CAKI-1 renal
PC-3 prostate = test system: PC-3 prostate
NCI/ADR-RES ovarian = test system: NCI/ADR-RES ovarian
MALME-3M melanoma = test system: MALME-3M melanoma
SK-MEL-28 melanoma = test system: SK-MEL-28 melanoma
SNB-75 CNS = test system: SNB-75 CNS
EKVX NSCLC = test system: EKVX NSCLC
RXF 393 renal = test system: RXF 393 renal
NCI-H23 lung = test system: NCI-H23 lung
SNB-19 CNS = test system: SNB-19 CNS
OVCAR-8 ovarian = test system: OVCAR-8 ovarian
U251 CNS = test system: U251 CNS
RPMI-8226 leukemia = test system: RPMI-8226 leukemia
HCT-15 colon = test system: HCT-15 colon
BT-549 breast = test system: BT-549 breast
T-47D breast = test system: T-47D breast
LOX IMVI melanoma = test system: LOX IMVI melanoma
SF-539 CNS = test system: SF-539 CNS
SK-MEL-5 melanoma = test system: SK-MEL-5 melanoma
OVCAR-4 ovarian = test system: OVCAR-4 ovarian
OVCAR-3 ovarian = test system: OVCAR-3 ovarian
SF-268 CNS = test system: SF-268 CNS
MOLT-4 leukemia = test system: MOLT-4 leukemia
KM12 colon = test system: KM12 colon
MDA-MB-231 breast = test system: MDA-MB-231 breast
SN12C renal = test system: SN12C renal
NCI-H460 lung = test system: NCI-H460 lung
A498 renal = test system: A498 renal
HOP-92 NSCLC = test system: HOP-92 NSCLC
SW-620 colon = test system: SW-620 colon
SK-OV-3 ovarian = test system: SK-OV-3 ovarian

In the case of `Oc1ccc([C@H]2c3c(O)cc(O)cc3C3c4c(cc(O)cc4[C@@H]2[C@H]2c4cc(O)cc5c4C(c4cc(O)cc(O)c4[C@@H]2c2ccc(O)cc2)[C@@H](c2ccc(O)cc2)O5)O[C@@H]3c2ccc(O)cc2)cc1` (some centres not stated), the TGI (OVCAR-5 ovarian) is reported as > 100 µM, the TGI (HT29 colon) is reported as > 100 µM and the TGI (HOP-62 NSCLC) is reported as > 100 µM. The TGI (SK-MEL-2 melanoma) was > 100 µM, the TGI (HS 578T breast) was > 100 µM and the TGI (NCI-H522 lung) was > 100 µM. The TGI (K-562 leukemia) was > 100 µM, the TGI (DU-145 prostate) was > 100 µM and the TGI (NCI-H226 lung) was > 100 µM. For the same molecule, the TGI (IGROV1 ovarian) was > 100 µM, the TGI (A549 NSCLC) was > 100 µM and the TGI (COLO 205 colon) was 8.15 µM. The TGI (SF-295 CNS) was > 100 µM, the TGI (MDA-MB-435) was > 100 µM and the TGI (UACC-62 melanoma) was > 100 µM. For the same molecule, the TGI (M14 melanoma) was > 100 µM, the TGI (SR leukemia) was 50 µM and the TGI (HCT-116 colon) was > 100 µM. For the same molecule, the TGI (MCF7 breast) was > 100 µM, the TGI (UACC-257 melanoma) was > 100 µM and the TGI (TK-10 renal) was > 100 µM. The TGI (HL-60(TB) leukemia) was > 100 µM, the TGI (CCRF-CEM leukemia) was > 100 µM and the TGI (ACHN renal) was > 100 µM. For the same molecule, the TGI (MDA-N) was > 100 µM, the TGI (786-0 renal) was > 100 µM and the TGI (CAKI-1 renal) was > 100 µM. The TGI (PC-3 prostate) was > 100 µM, the TGI (NCI/ADR-RES ovarian) was > 100 µM and the TGI (MALME-3M melanoma) was > 100 µM. The TGI (SK-MEL-28 melanoma) was 0.972 µM, the TGI (SNB-75 CNS) was > 100 µM and the TGI (EKVX NSCLC) was > 100 µM. The TGI (RXF 393 renal) was 0.428 µM, the TGI (NCI-H23 lung) was > 100 µM and the TGI (SNB-19 CNS) was > 100 µM. For the same molecule, the TGI (OVCAR-8 ovarian) was > 100 µM, the TGI (U251 CNS) was > 100 µM and the TGI (RPMI-8226 leukemia) was > 100 µM. For the same molecule, the TGI (HCT-15 colon) was > 100 µM, the TGI (BT-549 breast) was > 100 µM and the TGI (T-47D breast) was > 100 µM. For the same molecule, the TGI (LOX IMVI melanoma) was > 100 µM, the TGI (SF-539 CNS) was 5.33 µM and the TGI (SK-MEL-5 melanoma) was > 100 µM. The TGI (OVCAR-4 ovarian) was 8.53 µM, the TGI (OVCAR-3 ovarian) was > 100 µM and the TGI (SF-268 CNS) was > 100 µM. For the same molecule, the TGI (MOLT-4 leukemia) was > 100 µM, the TGI (KM12 colon) was > 100 µM and the TGI (MDA-MB-231 breast) was > 100 µM. The TGI (SN12C renal) was > 100 µM and the TGI (NCI-H460 lung) was > 100 µM.
In the case of `O=C1CSC(=S)N1c1ccco1`, the TGI (OVCAR-5 ovarian) is reported as > 100 µM, the TGI (HT29 colon) is reported as > 100 µM and the TGI (HOP-62 NSCLC) is reported as > 100 µM. For the same molecule, the TGI (SK-MEL-2 melanoma) was > 100 µM, the TGI (HS 578T breast) was > 100 µM and the TGI (NCI-H522 lung) was 64.1 µM. The TGI (K-562 leukemia) was > 100 µM, the TGI (DU-145 prostate) was > 100 µM and the TGI (NCI-H226 lung) was > 100 µM. For the same molecule, the TGI (IGROV1 ovarian) was > 100 µM, the TGI (A549 NSCLC) was > 100 µM and the TGI (COLO 205 colon) was > 100 µM. For the same molecule, the TGI (SF-295 CNS) was > 100 µM, the TGI (MDA-MB-435) was 75.6 µM and the TGI (M14 melanoma) was > 100 µM. The TGI (SR leukemia) was > 100 µM, the TGI (A498 renal) was > 100 µM and the TGI (HCT-116 colon) was > 100 µM. The TGI (MCF7 breast) was > 100 µM, the TGI (UACC-257 melanoma) was > 100 µM and the TGI (TK-10 renal) was > 100 µM. For the same molecule, the TGI (HL-60(TB) leukemia) was > 100 µM, the TGI (CCRF-CEM leukemia) was > 100 µM and the TGI (ACHN renal) was > 100 µM. For the same molecule, the TGI (MDA-N) was 45.4 µM, the TGI (786-0 renal) was 61 µM and the TGI (HOP-92 NSCLC) was > 100 µM. For the same molecule, the TGI (CAKI-1 renal) was > 100 µM, the TGI (PC-3 prostate) was > 100 µM and the TGI (NCI/ADR-RES ovarian) was > 100 µM. For the same molecule, the TGI (MALME-3M melanoma) was > 100 µM, the TGI (SK-MEL-28 melanoma) was > 100 µM and the TGI (EKVX NSCLC) was > 100 µM. The TGI (RXF 393 renal) was > 100 µM, the TGI (SW-620 colon) was > 100 µM and the TGI (NCI-H23 lung) was > 100 µM. For the same molecule, the TGI (SNB-19 CNS) was > 100 µM, the TGI (OVCAR-8 ovarian) was > 100 µM and the TGI (U251 CNS) was > 100 µM. The TGI (RPMI-8226 leukemia) was > 100 µM, the TGI (HCT-15 colon) was 50.9 µM and the TGI (BT-549 breast) was 50.4 µM. The TGI (LOX IMVI melanoma) was > 100 µM, the TGI (SF-539 CNS) was > 100 µM and the TGI (SK-MEL-5 melanoma) was > 100 µM. For the same molecule, the TGI (OVCAR-4 ovarian) was > 100 µM, the TGI (OVCAR-3 ovarian) was > 100 µM and the TGI (SF-268 CNS) was > 100 µM. The TGI (MOLT-4 leukemia) was > 100 µM, the TGI (KM12 colon) was 52.6 µM and the TGI (MDA-MB-231 breast) was 92.7 µM. For the same molecule, the TGI (SN12C renal) was > 100 µM, the TGI (NCI-H460 lung) was > 100 µM and the TGI (SK-OV-3 ovarian) was > 100 µM.
